Here are results for two compounds from paper PMC8707145, “Synthesis, Molecular Docking and Antiplasmodial Activities of New Tetrahydro-β-Carbolines” (International Journal of Molecular Sciences, 2021).

The subject of data set [1] is P. falciparum D10 (CQ-sensitive) strain. Nature of the data set: P. falciparum drug susceptibility assay (pLDH), D10 strain. It counts as cell-based. The following applies: Plasmodium falciparum, D10, 72 h, read-out: P. falciparum IC50 D10. Here is the method: Plasmodium falciparum cultures were established according to the method of Trager and Jensen, with slight modifications. […] Drugs were introduced into 96-well flat-bottomed microplates and serial dilutions made. […] Parasite growth was determined spectrophotometrically (OD650) by measuring the activity of parasite lactate dehydrogenase (pLDH), according to a modified version of the method of Makler, in both control and drug-treated cultures.

Data set [2] has as its system P. falciparum W2 (CQ-resistant) strain. Nature of the data set: P. falciparum drug susceptibility assay (pLDH), W2 strain. It is filed as cell-based, Plasmodium falciparum. The settings on record: Plasmodium falciparum, W2, 72 h, read-out: P. falciparum IC50 W2. The procedure:
Plasmodium falciparum cultures were established according to the method of Trager and Jensen, with slight modifications. The CQ-susceptible strain, D10, and the CQ-resistant strain, W2, were maintained in human type A-positive red blood cells at 5% hematocrit in RPMI 1640 medium with the addition of 1% AlbuMax, 0.01% hypoxanthine, 20 mM Hepes, and 2 mM glutamine. Cultures were maintained at 37 °C in a gas mixture consisting of 1% O2, 5% CO2, and 94% N2. Compounds were dissolved in DMSO and diluted with medium to achieve the required concentrations (final DMSO concentration <1%, which is non-toxic to the parasite). Drugs were introduced into 96-well flat-bottomed microplates and serial dilutions made. Asynchronous cultures with parasitaemia of 1–1.5% and 1% final hematocrit were aliquoted into the plates and incubated for 72 h at 37 °C. Parasite growth was determined spectrophotometrically (OD650) by measuring the activity of parasite lactate dehydrogenase (pLDH), according to a modified version of the method of Makler, in both control and drug-treated cultures.

In data set [3] the test system is human microvascular endothelial (HMEC-1) cell line. The settings on record: read-out: IC50 on HMEC-1 cell line, ref [21]; cited from earlier work.
A further data set relates to P. falciparum 3D7 strain. Set-up: method as in PMID 30411030. The settings on record: ref [11], cited from earlier work.
For data set [4], the system named is P. falciparum RKL-9 strain. Further details: method as in PMID 30411030. The following applies: ref [11], cited from earlier work.
Data set [5] deals with normal dermal fibroblasts. Set-up: method as in PMID 30411030. The following applies: ref [11]; cited from earlier work.

Some results are limits rather than exact numbers.

Take `CCN(CC)CCCC(C)Nc1ccnc2cc(Cl)ccc12` (centres unmarked) [CQ, chloroquine, reference compound]: the IC50 (as a rule, the concentration that gives 50% inhibition) in data set [1] is 17 ± 6 nM; in data set [2] it was 270 ± 70 nM; in data set [3], more than 38000 nM.

Consider `COC(=O)[C@@H]1Cc2c([nH]c3ccccc23)[C@@H](c2ccc3c(c2)OCO3)N1` [Compound 9a], for which the IC50 (in the data set on P. falciparum 3D7 strain (3D7 strain); in data set [4] (RKL-9 strain)) was less than 2860 nM each time. Further, the “selectivity index 3D7” value in the data set with P. falciparum 3D7 strain (against 3D7 strain) is reported as more than 10. In addition, in data set [4] (against RKL-9 strain), the “selectivity index RKL-9” value is listed as more than 10. Further, the “toxicity to normal dermal fibroblasts” value in data set [5] is listed as “nontoxic”.
